Measurements as given in the NIST ThermoML archive (doi:10.1021/je400332j).

Experiment: xn = mol fraction of the nth substance listed
Conditions: 101 kPa, Liquid; for viscosity: Concentric cylinders viscometry; for mass density: Vibrating tube method

CCCn1cc[n+](C)c1.F[B-](F)(F)F [1-propyl-3-methylimidazolium tetrafluoroborate] + CCCCCCn1cc[n+](C)c1.F[B-](F)(F)F
Conditions	mass density [kg/m3]	viscosity [mPa·s]
293.15 K, x1 = 0.1006	1154.7	257.8
293.15 K, x1 = 0.2005	1162.5	233.5
293.15 K, x1 = 0.2995	1170.4	212.7
293.15 K, x1 = 0.3996	1179.1	195.9
293.15 K, x1 = 0.4991	1188.1	176.5
293.15 K, x1 = 0.601	1197.2	158.4
293.15 K, x1 = 0.7001	1207.1	141.4
293.15 K, x1 = 0.8	1217.3	125.1
293.15 K, x1 = 0.8987	1228	110.2
293.15 K, x1 = 1	1239.3	95.44
298.15 K, x1 = 0.1006	1151.2	190.4
298.15 K, x1 = 0.2005	1159.1	173.1
298.15 K, x1 = 0.2995	1167.1	158.5
298.15 K, x1 = 0.3996	1175.6	146.3
298.15 K, x1 = 0.4991	1184.5	132.5
298.15 K, x1 = 0.601	1193.7	119.6
298.15 K, x1 = 0.7001	1203.6	107.2
298.15 K, x1 = 0.8	1213.9	95.66
298.15 K, x1 = 0.8987	1224.5	84.81
298.15 K, x1 = 1	1235.7	74.04
303.15 K, x1 = 0.1006	1147.8	143.5
303.15 K, x1 = 0.2005	1155.6	131.1
303.15 K, x1 = 0.2995	1163.5	120.5
303.15 K, x1 = 0.3996	1172	111.6
303.15 K, x1 = 0.4991	1181	101.6
303.15 K, x1 = 0.601	1190.2	92.16
303.15 K, x1 = 0.7001	1200	83.12
303.15 K, x1 = 0.8	1210.2	74.61
303.15 K, x1 = 0.8987	1220.8	66.57
303.15 K, x1 = 1	1232	58.59
308.15 K, x1 = 0.1006	1144.4	110.3
308.15 K, x1 = 0.2005	1152.1	101.2
308.15 K, x1 = 0.2995	1160.1	93.37
308.15 K, x1 = 0.3996	1168.6	86.79
308.15 K, x1 = 0.4991	1177.4	79.34
308.15 K, x1 = 0.601	1186.7	72.34
308.15 K, x1 = 0.7001	1196.4	65.59
308.15 K, x1 = 0.8	1206.6	59.23
308.15 K, x1 = 0.8987	1217.2	53.19
308.15 K, x1 = 1	1228.3	47.16
313.15 K, x1 = 0.1006	1141	86.32
313.15 K, x1 = 0.2005	1148.6	79.47
313.15 K, x1 = 0.2995	1156.6	73.61
313.15 K, x1 = 0.3996	1165.1	68.66
313.15 K, x1 = 0.4991	1173.9	63.07
313.15 K, x1 = 0.601	1183.2	57.75
313.15 K, x1 = 0.7001	1192.8	52.63
313.15 K, x1 = 0.8	1203	47.79
313.15 K, x1 = 0.8987	1213.5	43.19
313.15 K, x1 = 1	1224.7	38.56
318.15 K, x1 = 0.1006	1137.6	68.62
318.15 K, x1 = 0.2005	1145.2	63.43
318.15 K, x1 = 0.2995	1153.1	58.96
318.15 K, x1 = 0.3996	1161.6	55.18
318.15 K, x1 = 0.4991	1170.4	50.91
318.15 K, x1 = 0.601	1179.7	46.8
318.15 K, x1 = 0.7001	1189.3	42.87
318.15 K, x1 = 0.8	1199.4	39.14
318.15 K, x1 = 0.8987	1209.9	35.56
318.15 K, x1 = 1	1221	31.98
323.15 K, x1 = 0.1006	1134.2	55.36
323.15 K, x1 = 0.2005	1141.7	51.35
323.15 K, x1 = 0.2995	1149.6	47.9
323.15 K, x1 = 0.3996	1158.1	44.99
323.15 K, x1 = 0.4991	1166.9	41.66
323.15 K, x1 = 0.601	1176.1	38.47
323.15 K, x1 = 0.7001	1185.8	35.41
323.15 K, x1 = 0.8	1195.8	32.48
323.15 K, x1 = 0.8987	1206.2	29.67
323.15 K, x1 = 1	1217.4	26.83
328.15 K, x1 = 0.1006	1130.8	45.26
328.15 K, x1 = 0.2005	1138.3	42.13
328.15 K, x1 = 0.2995	1146.2	39.43
328.15 K, x1 = 0.3996	1154.7	37.15
328.15 K, x1 = 0.4991	1163.4	34.53
328.15 K, x1 = 0.601	1172.6	32.02
328.15 K, x1 = 0.7001	1182.3	29.61
328.15 K, x1 = 0.8	1192.1	27.28
328.15 K, x1 = 0.8987	1202.7	25.04
328.15 K, x1 = 1	1213.8	22.77
333.15 K, x1 = 0.1006	1127.4	37.44
333.15 K, x1 = 0.2005	1134.9	34.97
333.15 K, x1 = 0.2995	1142.7	32.83
333.15 K, x1 = 0.3996	1151.3	31.04
333.15 K, x1 = 0.4991	1159.9	28.95
333.15 K, x1 = 0.601	1169.2	26.95
333.15 K, x1 = 0.7001	1178.7	25.03
333.15 K, x1 = 0.8	1188.6	23.15
333.15 K, x1 = 0.8987	1199.1	21.37
333.15 K, x1 = 1	1210.2	19.54
338.15 K, x1 = 0.1006	1124.1	31.31
338.15 K, x1 = 0.2005	1131.5	29.33
338.15 K, x1 = 0.2995	1139.3	27.63
338.15 K, x1 = 0.3996	1147.8	26.21
338.15 K, x1 = 0.4991	1156.5	24.53
338.15 K, x1 = 0.601	1165.7	22.92
338.15 K, x1 = 0.7001	1175.2	21.38
338.15 K, x1 = 0.8	1185.2	19.85
338.15 K, x1 = 0.8987	1195.5	18.4
338.15 K, x1 = 1	1206.6	16.92
343.15 K, x1 = 0.1006	1120.7	26.45
343.15 K, x1 = 0.2005	1128.1	24.83
343.15 K, x1 = 0.2995	1135.9	23.46
343.15 K, x1 = 0.3996	1144.4	22.3
343.15 K, x1 = 0.4991	1153	20.96
343.15 K, x1 = 0.601	1162.2	19.65
343.15 K, x1 = 0.7001	1171.7	18.4
343.15 K, x1 = 0.8	1181.6	17.19
343.15 K, x1 = 0.8987	1192	15.98
343.15 K, x1 = 1	1203	14.77
